Experimental data from article PMC10535219, “Discovery and Potential Utility of a Novel Non-Invasive Ocular Delivery Platform” (Pharmaceutics, 2023).
Like-named read-outs stand apart in the source and are kept apart here.

What was measured:
[1] = Biodisposition of JV-DE1 and JV-MD2 delivered via NIODP (periorbital skin) in non-human primates; assay type: in vivo, cynomolgus monkeys; conditions: for % Administered Dose, Retina: endogenous DHA subtracted; for Cmax / concentration at 0.5 h / concentration at 24 h / concentration at 3 h / concentration at 6 h: cynomolgus monkey, topical
Experimental: All experiments were performed at Medicilon. […] A pen brush was used to dose each formulation with three to four circular motions for even distribution. The doses of the test articles were selected based on their solubility/concentration with the maximum deliverable volume on the periorbital skin of the animals. The administered dose was calculated by the weight difference of the pen brush before and after administration. Animals were restrained from eye rubbing in restraint chairs for 2 h after dosing, with access to food and drink. A blood sample was collected from one of the study animals at pre-dosing. For every time point of 0.5, 3, 6, and 24 h post-dose, one animal was euthanized and the ocular tissues (upper eyelid, cornea, retina, and vitreous humor) of both eyes were collected. Plasma samples were collected before each euthanization.
For the convenience of tissue processing and sample extraction, only upper eyelids were collected to represent the entirety of the periorbital tissue. Ocular tissues were homogenized by adding a 9-fold volume of 50% methanol/H2O per gram of tissue. For the LC-MS/MS sample preparation, a 50 μL aliquot of plasma, aqueous humor, vitreous humor, or tissue homogenate was thoroughly mixed with a 250 μL extraction solution of CHCl3/EtOH (1:1); then, a 210 μL supernatant of the samples was transferred to a 96-well plate after centrifugation. The samples were evaporated in nitrogen gas (N2) until dried. Each sample was redissolved in 200 μL MeOH, of which 2 µL was injected for the LC-MS/MS analysis.
The LC system was the same as that described in Section 2. The MS analysis was performed using a Triple Quad 5500 with an ESI ion source, and the data acquisition and control system were Analyst 1.6.3 software from Applied Biosystems/MDS Sciex.
The LC/MS conditions for JV-DE1 are described in Supplementary Table S2. The LC conditions were as follows: ACQUITY UPLC ® BEH C18 1.7 μm, 2.1 mm × 50 mm; the mobile phase Column A, 0.1% formic acid in water; and Column B, 0.1% formic acid in acetonitrile. The flow rate was 0.6 ml/min, the column temperature was 50 °C, and the injection volume was 2 µL. The MS conditions were as follows: scan type, positive MRM; ion source, turbo spray; ionization model, ESI; nebulizer gas 1, 55 psi; gas 2, 55 psi; curtain gas, 40 psi; CAD, 10; ionspray voltage, 5500 V; and temperature, 550 °C.
The LC/MS conditions for JV-MD2 (DHA) are described in Supplementary Table S3. The LC conditions were as follows: ACQUITY UPLC® BEH C18 1.7 μm, 2.1 mm × 50 mm; the mobile phase Column A, […] NH4AC in H2O; and Column B, CAN. The flow rate was 0.5 mL/min, the column temperature was 40 °C, and the injection volume was 4 µL. The MS conditions were as follows: scan type, negative MRM; ion source, turbo spray; ionization model, ESI; nebulizer gas 1, 55 psi; gas 2, 55 psi; curtain gas, 40 psi; CAD, 9; ionspray voltage, 5500 V; and temperature, 550 °C.

[2] = set-up: method as in PMID 32434914; conditions: dietary supplementation; mouse model with advanced AMD pathologies; cited from earlier work
[3] = tested on: IL-1β production; set-up: method as in PMID 29352206; conditions: human THP-1 macrophage cell line; read-out: IC50 for reducing IL-1β production; cited from earlier work
[4] = JV-MD2, monkey, NIODP OS, 6568 μg/eye, 0.5 h
[5] = JV-MD2, monkey, NIODP OS, 6747 μg/eye, 24 h
[6] = JV-MD2, monkey, NIODP OS, 6768 μg/eye, 3 h
[7] = JV-MD2, monkey, NIODP OS, 7018 μg/eye, 6 h
[8] = JV-MD2, monkey, NIODP, within 30 min of dosing

concentration in vitreous humor ([1]; JV-MD2, monkey, NIODP 6775 µg/eye, all timepoints except 24 h, LLOQ 0.5 µg/mL): below BLQ
% Administered Dose, Cornea [1, 4]: 0.0283%
% Administered Dose, Eyelid/periorbital skin [1, 4]: 0.4288%
% Administered Dose, Vitreous humor [1, 4]: 0.0000%
% Administered Dose, Retina [1, 4]: 0.0343%
% Administered Dose, Cornea [1, 5]: 0.0173%
% Administered Dose, Eyelid/periorbital skin [1, 5]: 0.0197%
% Administered Dose, Vitreous humor [1, 5]: 0.0236%
% Administered Dose, Retina [1, 5]: 0.0175%
% Administered Dose, Cornea [1, 6]: 0.0109%
% Administered Dose, Eyelid/periorbital skin [1, 6]: 0.3844%
% Administered Dose, Vitreous humor [1, 6]: 0.0000%
% Administered Dose, Retina [1, 6]: 0.0264%
% Administered Dose, Cornea [1, 7]: 0.0149%
% Administered Dose, Eyelid/periorbital skin [1, 7]: 0.0149%
% Administered Dose, Vitreous humor [1, 7]: 0.0000%
% Administered Dose, Retina [1, 7]: 0.0228%
maximum percentage of the administered dose, cornea [1, 8]: 0.0283%
maximum percentage of the administered dose, eyelid/periorbital skin [1, 8]: 0.4288%
maximum percentage of the administered dose, retina [1, 8]: 0.0343%
Cmax ([1]; cornea, JV-MD2, monkey, single dose about 7 mg via NIODP, read-out: Cmax in cornea): 66000 ng/g
Cmax ([1]; retina, JV-MD2, NHP, about 7 mg/eye via NIODP, read-out: retinal Cmax): ~338 µM
Cmax ([1]; retina, JV-MD2, monkey, single dose about 7 mg (6775 µg/eye) via NIODP, endogenous level 17 µg/g, read-out: Cmax in retina): 111000 ng/g
concentration at 0.5 h ([1]; cynomolgus, cornea of the dosed left eye (OS), JV-MD2, monkey, NIODP OS, 6568 μg/eye, 0.5 h, endogenous BLQ, read-out: Drug in OS Tissues, Cornea): 66000 ng/g
concentration at 24 h ([1]; cynomolgus, cornea of the dosed left eye (OS), JV-MD2, monkey, NIODP OS, 6747 μg/eye, 24 h, endogenous BLQ, read-out: Drug in OS Tissues, Cornea): 26000 ng/g
concentration at 3 h ([1]; cynomolgus, cornea of the dosed left eye (OS), JV-MD2, monkey, NIODP OS, 6768 μg/eye, 3 h, endogenous BLQ, read-out: Drug in OS Tissues, Cornea): 22000 ng/g
concentration at 6 h ([1]; cynomolgus, cornea of the dosed left eye (OS), JV-MD2, monkey, NIODP OS, 7018 μg/eye, 6 h, endogenous BLQ, read-out: Drug in OS Tissues, Cornea): 22000 ng/g
concentration at 0.5 h ([1]; cynomolgus, plasma, JV-MD2 21.5% w/w, monkey, NIODP periorbital skin OS, 6568 μg/eye, 0.5 h, pre-dose baseline 2, read-out: Drug in plasma): 2000 ng/mL
concentration at 24 h ([1]; cynomolgus, plasma, JV-MD2 21.5% w/w, monkey, NIODP periorbital skin OS, 6747 μg/eye, 24 h, pre-dose baseline 2, read-out: Drug in plasma): 1000 ng/mL
concentration at 3 h ([1]; cynomolgus, plasma, JV-MD2 21.5% w/w, monkey, NIODP periorbital skin OS, 6768 μg/eye, 3 h, pre-dose baseline 2, read-out: Drug in plasma): 3000 ng/mL
concentration at 6 h ([1]; cynomolgus, plasma, JV-MD2 21.5% w/w, monkey, NIODP periorbital skin OS, 7018 μg/eye, 6 h, pre-dose baseline 2, read-out: Drug in plasma): 2000 ng/mL
Cmax ([1]; cynomolgus, retina, 6775 µg per eye, JV-MD2, NHP, about 7 mg/eye via NIODP, read-out: retinal Cmax): 338 µM
concentration at 0.5 h ([1]; cynomolgus, retina, JV-MD2, monkey, NIODP OS, 6568 μg/eye, 0.5 h, endogenous DHA 17 µg/g, read-out: Drug in OS Tissues, Retina): 111000 ng/g
concentration at 24 h ([1]; cynomolgus, retina, JV-MD2, monkey, NIODP OS, 6747 μg/eye, 24 h, endogenous DHA 17 µg/g, read-out: Drug in OS Tissues, Retina): 47000 ng/g
concentration at 3 h ([1]; cynomolgus, retina, JV-MD2, monkey, NIODP OS, 6768 μg/eye, 3 h, endogenous DHA 17 µg/g, read-out: Drug in OS Tissues, Retina): 67000 ng/g
concentration at 6 h ([1]; cynomolgus, retina, JV-MD2, monkey, NIODP OS, 7018 μg/eye, 6 h, endogenous DHA 17 µg/g, read-out: Drug in OS Tissues, Retina): 79000 ng/g
concentration at 0.5 h ([1]; cynomolgus, upper eyelid (periorbital skin) of the dosed left eye (OS), JV-MD2, monkey, NIODP OS, 6568 μg/eye, 0.5 h, endogenous BLQ, read-out: Drug in OS Tissues, Eyelid/periorbital skin): 381000 ng/g
concentration at 24 h ([1]; cynomolgus, upper eyelid (periorbital skin) of the dosed left eye (OS), JV-MD2, monkey, NIODP OS, 6747 μg/eye, 24 h, endogenous BLQ, read-out: Drug in OS Tissues, Eyelid/periorbital skin): 16000 ng/g
concentration at 3 h ([1]; cynomolgus, upper eyelid (periorbital skin) of the dosed left eye (OS), JV-MD2, monkey, NIODP OS, 6768 μg/eye, 3 h, endogenous BLQ, read-out: Drug in OS Tissues, Eyelid/periorbital skin): 420000 ng/g
concentration at 6 h ([1]; cynomolgus, upper eyelid (periorbital skin) of the dosed left eye (OS), JV-MD2, monkey, NIODP OS, 7018 μg/eye, 6 h, endogenous BLQ, read-out: Drug in OS Tissues, Eyelid/periorbital skin): 11000 ng/g
concentration at 24 h ([1]; cynomolgus, vitreous humor, 6775 µg per eye, JV-MD2, monkey, NIODP 6775 µg/eye, 24 h post-dose, read-out: concentration in vitreous humor): 2000 ng/mL
concentration at 0.5 h ([1]; cynomolgus, vitreous humor, JV-MD2, monkey, NIODP OS, 6568 μg/eye, 0.5 h, BLQ given a value of 0, LLOQ 0.5 µg/mL, read-out: Drug in OS Tissues, Vitreous humor): 0 ng/g
concentration at 24 h ([1]; cynomolgus, vitreous humor, JV-MD2, monkey, NIODP OS, 6747 μg/eye, 24 h, read-out: Drug in OS Tissues, Vitreous humor): 2000 ng/g
concentration at 3 h ([1]; cynomolgus, vitreous humor, JV-MD2, monkey, NIODP OS, 6768 μg/eye, 3 h, BLQ given a value of 0, LLOQ 0.5 µg/mL, read-out: Drug in OS Tissues, Vitreous humor): 0 ng/g
concentration at 6 h ([1]; cynomolgus, vitreous humor, JV-MD2, monkey, NIODP OS, 7018 μg/eye, 6 h, BLQ given a value of 0, LLOQ 0.5 µg/mL, read-out: Drug in OS Tissues, Vitreous humor): 0 ng/g
Structure (SMILES): CC/C=C\C/C=C\C/C=C\C/C=C\C/C=C\C/C=C\CCC(=O)O [JV-MD2, cis-4,7,10,13,16,19-docosahexaenoic acid]
effect on AMD pathologies [2]: alleviated most pathologies
IC50 [3]: 4.6 µM
